Reference: patent US8563254B2, “Biomarkers of tumor pharmacodynamic response” (Novartis AG, priority 2009, dated 2013)

How the values were obtained:
Format in all cases: cell-based, human
[1] = system: GTL-16 cells; assay: Western blot of nuclear protein fractions, GTL-16; conditions: GTL-16, 0.3 μM, 16 hr and 24 hr, normalized to total protein
Protocol: Total protein lysates were prepared from the GTL-16 and A375 cells with RIPA lysis buffer (Upstate, Millipore Corporation, Charlottesville, Va., USA). Cells were washed with PBS and 500 ul of ice-cold RIPA buffer, containing protease inhibitor cocktail tablet (Roche Diagnostic GmbH, Mannheim, Germany) and phosphatase inhibitors (Sigma-Aldrich, Inc., St. Louis, Mo., USA), was added to each plate on ice. After 15 min the cells were scrapped from the plate surface and spun at 16000 RPM for 10 min at 4° C. The supernatant was collected and frozen at −80° C. Nuclear protein fractions were prepared by the NE-PER nuclear and cytoplasmic extraction kit (Pierce Biotechnology, Rockford, Ill., USA). Proteins were quantified by bicinchoninic acid assay (Pierce Biotechnology, Rockford, Ill., USA) for Western blotting.
Primary antibodies specific for NFκB p65, cREL, p-ERK1/2, p-c-jun, ERK1 and Jun were purchased from Santa Cruz Biotechnology (Santa Cruz Biotechnology, Inc., Santa Cruz, Calif., USA) with the exception of Hsp70 and TBP (nuclear loading control), which were obtained from StressGen (StressGen, Assay Designs, Inc., Aim Arbor, Mich., USA) and Abcam (Abcam Inc., Cambridge, Mass., USA), respectively. […]

[2] = system: A375 cells; assay: IL-8 ELISA of A375 culture supernatants
Protocol: A malignant melanoma cell line A375 (American Type Culture Collection, Manassas, Va., USA) and gastric cancer cell line, GTL-16 (Prof Silvia Giordano, Institute for Cancer Research and Treatment, Turin, Italy) were cultured in RPMI 1640 supplemented with 10% FBS and 1% penicillin-streptomycin at 37° C. in 5% CO2 (GIBCO reagents, Invitrogen Corporation, Carlsbad, Calif., USA). Cell numbers were determined by ViCell™ XR Cell Viability Analyzer 2.03 (Beckman Coulter, Inc., Fullerton, Calif., USA). Cells were seeded in poly-D-lysine coated plates (BIOCOAT Cell Environments, Becton Dickinson Biosciences, San Jose, Calif., USA).
Human IL-8 levels in cell culture supernatants from GTL-16 and A375 cells were measured by a sandwich enzyme-linked immunosorbent assay (R&D Systems, Inc., Minneapolis, Minn., USA). Cell culture supernatants were collected from DMSO and NVP-AUY922 treated cells 16, 24, 48 and 72 hr post-treatment and stored at −20° C.
To better characterize the relationship between Hsp90 inhibitor treatment and effects on IL-8 production, GTL-16 and A375 cells were washed and treated for 24 hr with fresh medium containing various concentrations of NVP-AUY922. For this length of treatment time, maximal inhibition of IL-8 accumulation appears to be reached at 0.3 μM as measured by enzyme-linked immunosorbent assay; this equates to 80% and 60% reductions in GTL-16 and A375 cultures, respectively (FIGS. 2A, B).

[3] = system: A375 cells; assay: Cell viability by CellTiter-Glo, A375; conditions: A375, 0.3 μM, 72 hr treatment time
Protocol: Cell Viability was measured by CellTiter-Glo assay (Promega U.S., Madison, Wis., USA). GTL-16 and A375 cells were grown in 6-well poly-D-lysine coated plates (BD Biosciences). Cells were treated with NVP-AUY922. Cell viability was measured 16, 24, 48 and 72 hr post-treatment with Hsp90 inhibitor. Briefly supernatants were removed and cells were washed with 3 ml of PBS, pH 7.4. 1 ml of a two component CellTiter-Glo reagent was added to each well and the plates were shaken vigorously for 2 min, followed by 10 min incubation at room temperature in the dark. Luminescent signal intensity was recorded with an integration time set between 0.25 and 1 s/well.

In the case of CCNC(=O)c1noc(-c2cc(C(C)C)c(O)cc2O)c1-c1ccc(CN2CCOCC2)cc1 [NVP-AUY922, 5-(2,4-Dihydroxy-5-isopropyl-phenyl)-4-(4-morhpolin-4-ylmethyl-phenyl)-isoxazole-3-carboxylic acid ethylamide], the “change in nuclear NFκB p65 levels” value [1] is reported as −26%, the “decrease in nuclear phospho-c-Jun levels” value [1] is reported as roughly 83% and the “time within which IL-8 production dramatically declines” value ([2]; A375, 0.3 μM) is reported as no more than 16 h. The “concentration at which maximal inhibition of IL-8 accumulation is reached” value ([2]; A375, 24 hr treatment) was 0.3 µM, the inhibition at 0.3 µM ([2]; Homo sapiens, A-375, A375, 0.3 μM, 24 hr, ELISA, read-out: reduction of IL-8 accumulation (maximal inhibition)) was 60% and the “cell viability over time” value [3] was “steadily declines”.
